Key:
[1] = Residual solvents after comparable drying of crystal forms; type: physicochemical; details: after drying at 35° C. at 5 mBar for 48 h; both forms isolated from same solvent mixture
Method: Cabergoline from L isolated by the process of the invention can be washed by cold aliphatic hydrocarbons or digesting previously isolated material in a suspension of aliphatic hydrocarbons preferably heptane to remove impurities and finally dried in vacuo at temperature from 20 to 80° C., preferably from 30 to 50° C., preferably 30 to 40° C. to remove residual solvents. […] Form L and form I are isolated from the same solvent mixture, but form I is captured as an early precipitate as described in Example B and contains below 5% of form L. Solvents are easier removed if cabergoline is in the form of needles.
6.1 g of cabergoline obtained in example 1 were dissolved in 12 ml of 2-chlorotoluene by agitating at room temperature. The solution was cooled down to −30° C. while stirring. The gel-like material was formed after 60 minutes. Furthermore 150 ml of n-heptane were added and let stirring 1 hour at −20° C. Further the solvent was exchanged with 100 ml of fresh n-heptane, precooled to −20° C. and let stirring 1 hour at −20° C. Afterwards the temperature was slowly raising to 0° C. (0.5 K/min) and small samples were analyzed.

[2] = Particle size distribution by the Malvern method; type: physicochemical
Method: Physically pure cabergoline form L is isolated in a form of fine needles what is shown in the SEM picture. Average shorter axis of the needles is below 10 μm. Milling of cabergoline form L isolated by the process of the invention by a hammer mill gives particle size distribution d 0.9 below 10 μm.
6.1 g of cabergoline obtained in Example 1 were dissolved in 12 ml of 2-chlorotoluene by agitating at room temperature. The solution was cooled down to −30° C. while stirring. The gel-like material was formed after 60 minutes. Furthermore 150 ml of n-heptane were added and let stirring 1 hour at −20° C. Further the solvent was exchanged with 100 ml of fresh n-heptane, precooled to −20° C. and let stirring 1 hour at −20° C. Afterwards the temperature was raised to 10° C. (0.5 K/min) and further stirred for 1 hour, The temperature was raised to 20° C. (0.5 K/min) followed by stirring for 5 hour. The obtained dense suspension was filtered and washed with 50 ml of n-heptane and dried at 40° C. and 5 mbar for 24 hours. The obtained needle-like product (5.5 g) was identified as cabergoline form L. Particle size distribution of the product of Example 2 is the following: d 0.1=0.4 um; d 0.5=4.2 um; d 0.9=33 um.
Particle size distribution was measured by the Malvern method.

residual solvent 2-Chlorotoluene [1]	residual solvent Heptane [1]	particle size distribution d 0.9 ([2]; after milling by a hammer mill)	Particle size distribution d 0.1 ([2]; product of Example 2, unmilled)	Particle size distribution d 0.5 ([2]; product of Example 2, unmilled)	particle size distribution d 0.9 ([2]; product of Example 2, unmilled)	SMILES
333 ppm	764 ppm					C=CCN1C[C@H](C(=O)N(CCCN(C)C)C(=O)NCC)C[C@@H]2c3cccc4[nH]cc(c34)C[C@H]21 [Cabergoline form I, 1-((6-allylergolin-8β-yl)-carbonyl)-1-(3-dimethylaminopropyl)-3-ethylurea, reference compound]
236 ppm	186 ppm	below 10 μm	0.4 um	4.2 um	33 um	C=CCN1C[C@H](C(=O)N(CCCN(C)C)C(=O)NCC)C[C@@H]2c3cccc4[nH]cc(c34)C[C@H]21 [Cabergoline form L, 1-((6-allylergolin-8β-yl)-carbonyl)-1-(3-dimethylaminopropyl)-3-ethylurea]

Source: patent publication US8338445B2, “Crystal form of cabergoline” (Lek Pharmaceuticals D.D., priority 2007, dated 2012)
